# Assay results as given in ChEMBL document CHEMBL1201862, “PubChem BioAssay data set” (2004).
#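 Test compounds were applied to cells in 96-well plates for 48 hours at 5 doses. GI50 is the concentration that inhibits growth by half.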 Activity calls are given as the source filed them. No stated cut-off is given here; in the data, active = GI50 up to about 1.1 µM and inactive = higher. Where a SMILES comes first, the peptide text is derived from it. The star is where a group is joined. Boc = CC(C)(C)OC(=O)*
# What was measured:
# Assay in all cases: inhibition of tumour cell growth, NCI panel, 48 h
# SK-OV-3 = test system: SK-OV-3
# SF-268 = test system: SF-268
# RPMI-8226 = test system: RPMI-8226
# UACC-257 = test system: UACC-257
# HCT-116 = test system: HCT-116
# SK-MEL-28 = test system: SK-MEL-28
# MOLT-4 = test system: MOLT-4
# OVCAR-4 = test system: OVCAR-4
# KM12 = test system: KM12
# SNB-19 = test system: SNB-19
# SNB-75 = test system: SNB-75
# HOP-62 = test system: HOP-62
# HOP-92 = test system: HOP-92
# K562 = test system: K562
# NCI-H460 = test system: NCI-H460
# RXF 393 = test system: RXF 393
# HT-29 = test system: HT-29
# CAKI-1 = test system: CAKI-1
# A498 = test system: A498
# OVCAR-5 = test system: OVCAR-5
SMILES,GI50 (SK-OV-3),GI50 (SF-268),GI50 (RPMI-8226),GI50 (UACC-257),GI50 (HCT-116),GI50 (SK-MEL-28),GI50 (MOLT-4),GI50 (OVCAR-4),GI50 (KM12),GI50 (SNB-19),GI50 (SNB-75),GI50 (HOP-62),GI50 (HOP-92),GI50 (K562),GI50 (NCI-H460),GI50 (RXF 393),GI50 (HT-29),GI50 (CAKI-1),GI50 (A498),GI50 (OVCAR-5)
O=C(NN1C(=O)C(Cl)C1c1ccccc1O)c1ccccc1O (centres undefined),16.1 µM (inactive),44.1 µM (inactive),12.5 µM (inactive),22.2 µM (inactive),3.69 µM (inactive),22.3 µM (inactive),23.2 µM (inactive),22.5 µM (inactive),7.31 µM (inactive),0.365 µM (active),49.9 µM (inactive),29 µM (inactive),> 100 µM (inactive),32.4 µM (inactive),5.33 µM (inactive),63.5 µM (inactive),6.61 µM (inactive),,,
Cc1nc2ccccc2c(=O)n1Nc1ccc(C(=O)O)cc1,> 100 µM (inactive),> 100 µM (inactive),> 100 µM (inactive),> 100 µM (inactive),> 100 µM (inactive),> 100 µM (inactive),> 100 µM (inactive),> 100 µM (inactive),> 100 µM (inactive),> 100 µM (inactive),> 100 µM (inactive),> 100 µM (inactive),> 100 µM (inactive),> 100 µM (inactive),> 100 µM (inactive),> 100 µM (inactive),> 100 µM (inactive),> 100 µM (inactive),> 100 µM (inactive),> 100 µM (inactive)
Cc1ccc(N2C(=O)/C(=C3\SC(C(N)=O)=C(N)N3c3ccccc3)SC2=S)cc1,28.2 µM (inactive),15.7 µM (inactive),72.4 µM (inactive),> 100 µM (inactive),71 µM (inactive),> 100 µM (inactive),> 100 µM (inactive),,> 100 µM (inactive),57.5 µM (inactive),7.91 µM (inactive),25.8 µM (inactive),12.1 µM (inactive),78.7 µM (inactive),> 100 µM (inactive),,44.3 µM (inactive),,4.73 µM (inactive),2.21 µM (inactive)
c1ccc2c3c(ccc2c1)-c1[nH]ncc1CCO3,35.8 µM (inactive),37.8 µM (inactive),,27.7 µM (inactive),32.4 µM (inactive),50.8 µM (inactive),20.1 µM (inactive),29.7 µM (inactive),37.2 µM (inactive),47.1 µM (inactive),27.5 µM (inactive),30.6 µM (inactive),27.5 µM (inactive),32.8 µM (inactive),25.6 µM (inactive),33.3 µM (inactive),32.5 µM (inactive),33.4 µM (inactive),> 56 µM (inactive),25.8 µM (inactive)
C=C(C)[C@@H]1CC[C@@H]2C(=CC[C@]3(C)C([C@H](C)CC/C=C(/C)C(=O)O)CC[C@@]23C)[C@@]1(C)CCC(=O)O (some centres undefined),37.7 µM (inactive),37.7 µM (inactive),22.9 µM (inactive),23.8 µM (inactive),22.3 µM (inactive),27.9 µM (inactive),,36.6 µM (inactive),23.4 µM (inactive),34 µM (inactive),34.4 µM (inactive),52.8 µM (inactive),19.2 µM (inactive),33 µM (inactive),20.4 µM (inactive),19.4 µM (inactive),21.7 µM (inactive),23.8 µM (inactive),33.3 µM (inactive),30.5 µM (inactive)
O=C(c1ccccc1)c1nc2ccc(Cl)cc2c2c1CCCO2,,> 100 µM (inactive),> 100 µM (inactive),,> 100 µM (inactive),33.7 µM (inactive),> 100 µM (inactive),> 100 µM (inactive),> 100 µM (inactive),> 100 µM (inactive),,> 100 µM (inactive),,> 100 µM (inactive),> 100 µM (inactive),56.2 µM (inactive),> 100 µM (inactive),> 100 µM (inactive),,> 100 µM (inactive)
CCOCNC(=O)N(COCC)COCC,> 100 µM (inactive),> 100 µM (inactive),> 100 µM (inactive),> 100 µM (inactive),> 100 µM (inactive),> 100 µM (inactive),> 100 µM (inactive),,> 100 µM (inactive),> 100 µM (inactive),> 100 µM (inactive),> 100 µM (inactive),,> 100 µM (inactive),,,> 100 µM (inactive),> 100 µM (inactive),> 100 µM (inactive),> 100 µM (inactive)
Cc1c2cnccc2c(C)c2c1c1ccccc1n2CC1CO1 (centres undefined),2.53 µM (inactive),0.323 µM (active),0.883 µM (active),1.75 µM (inactive),0.327 µM (active),1.71 µM (inactive),0.0213 µM (active),1.99 µM (inactive),1.58 µM (inactive),2.04 µM (inactive),0.652 µM (active),1.64 µM (inactive),1.81 µM (inactive),0.859 µM (active),0.454 µM (active),0.427 µM (active),1.72 µM (inactive),1.34 µM (inactive),0.247 µM (active),2.05 µM (inactive)
CN1NC(c2ccc(Cl)cc2)=C(C#N)C(=O)CC1c1ccccc1 (centres undefined),> 100 µM (inactive),> 100 µM (inactive),> 100 µM (inactive),> 100 µM (inactive),> 100 µM (inactive),> 100 µM (inactive),,> 100 µM (inactive),> 100 µM (inactive),> 100 µM (inactive),> 100 µM (inactive),,> 100 µM (inactive),,> 100 µM (inactive),> 100 µM (inactive),> 100 µM (inactive),> 100 µM (inactive),> 100 µM (inactive),> 100 µM (inactive)
O=C(Cc1nc2ccc(C(=O)c3ccccc3)cc2nc1O)C(=O)Nc1nc2ccccc2[nH]1,> 100 µM (inactive),67 µM (inactive),,84.5 µM (inactive),51.6 µM (inactive),98.6 µM (inactive),42.8 µM (inactive),61.7 µM (inactive),24.6 µM (inactive),> 100 µM (inactive),31.7 µM (inactive),33.3 µM (inactive),23 µM (inactive),,46.5 µM (inactive),,52.7 µM (inactive),40.2 µM (inactive),,
CC1C2CC(CC2O)C1(C)C (centres undefined),> 100 µM (inactive),> 100 µM (inactive),,> 100 µM (inactive),> 100 µM (inactive),> 100 µM (inactive),> 100 µM (inactive),> 100 µM (inactive),> 100 µM (inactive),> 100 µM (inactive),> 100 µM (inactive),> 100 µM (inactive),> 100 µM (inactive),> 100 µM (inactive),> 100 µM (inactive),> 100 µM (inactive),> 100 µM (inactive),> 100 µM (inactive),> 100 µM (inactive),> 100 µM (inactive)
CC(=O)NNc1nc(C)c(C(=O)NNC(=O)C(=O)Nc2ccccc2C#N)s1,> 100 µM (inactive),> 100 µM (inactive),> 100 µM (inactive),> 100 µM (inactive),> 100 µM (inactive),> 100 µM (inactive),> 100 µM (inactive),> 100 µM (inactive),50.1 µM (inactive),> 100 µM (inactive),> 100 µM (inactive),> 100 µM (inactive),> 100 µM (inactive),> 100 µM (inactive),> 100 µM (inactive),> 100 µM (inactive),> 100 µM (inactive),> 100 µM (inactive),> 100 µM (inactive),> 100 µM (inactive)
COc1cc(O)c2c(=O)cc(C3(O)C=CC(=O)C=C3)oc2c1,2.37 µM (inactive),0.428 µM (active),,0.489 µM (active),0.29 µM (active),0.199 µM (active),0.0815 µM (active),0.393 µM (active),0.083 µM (active),6.93 µM (inactive),1.22 µM (inactive),0.182 µM (active),,< 0.01 µM (active),0.675 µM (active),3.44 µM (inactive),< 0.01 µM (active),< 0.0476 µM (active),4.05 µM (inactive),
c1ccc(-c2nnc(-c3nsc4ccccc34)o2)cc1,,> 100 µM (inactive),> 100 µM (inactive),> 100 µM (inactive),> 100 µM (inactive),> 100 µM (inactive),> 100 µM (inactive),> 100 µM (inactive),> 100 µM (inactive),> 100 µM (inactive),2.56 µM (inactive),> 100 µM (inactive),18.4 µM (inactive),> 100 µM (inactive),,> 100 µM (inactive),> 100 µM (inactive),,,> 100 µM (inactive)
COc1ccc(-c2cc(O)c3ccc(C)nc3n2)cc1,> 100 µM (inactive),> 100 µM (inactive),55.7 µM (inactive),> 100 µM (inactive),,> 100 µM (inactive),49.4 µM (inactive),> 100 µM (inactive),> 100 µM (inactive),> 100 µM (inactive),,> 100 µM (inactive),97.7 µM (inactive),> 100 µM (inactive),,> 100 µM (inactive),81.5 µM (inactive),> 100 µM (inactive),65.6 µM (inactive),> 100 µM (inactive)
CC(C)(C)OC(=O)NC(Cc1ccccc1)C(=O)N1CCCC1C(N)=O (stereo not drawn) (Boc-Phe-Pro-NH2; configuration not given here),> 100 µM (inactive),> 100 µM (inactive),> 100 µM (inactive),> 100 µM (inactive),> 100 µM (inactive),> 100 µM (inactive),> 100 µM (inactive),> 100 µM (inactive),,> 100 µM (inactive),,> 100 µM (inactive),1.74 µM (inactive),> 100 µM (inactive),> 100 µM (inactive),,> 100 µM (inactive),9.29 µM (inactive),,
